Test results as given in patent US8168647B2, “Vinblastine derivatives, their preparation, use and pharmaceutical compositions comprising the said derivatives” (Shanghai Institute of Materia Medica Chinese Academy of …, priority 2007, dated 2012).

Assays:
[1] = test system: human cervical carcinoma cell line Hela; experiment: In vitro cytotoxicity assay, Sulforhodamine B (SRB), Hela; assay type: cell-based; settings: Homo sapiens, HeLa, 72 h, read-out: Hela (IC50, nM)
[2] = test system: human non-small cell lung cancer cell line A-549; experiment: In vitro cytotoxicity assay, Sulforhodamine B (SRB), A-549; assay type: cell-based; settings: Homo sapiens, A549, 72 h, read-out: A549 (IC50, nM)

| SMILES | IC50 [1] [nM] | IC50 [2] [nM] |
| --- | --- | --- |
| CCOCC1(O)[C@H](OC(C)=O)[C@]2(CC)C=CCN3CC[C@@]4(c5cc([C@@]6(C(=O)OC)C[C@@H]7C=C(CC)CN(CCc8c6[nH]c6ccccc86)C7)c(OC)cc5N(C)[C@@H]14)[C@@H]32 (stereo partly drawn) [BM1] | 154 | 348 |
| C=CCOCC1(O)[C@H](OC(C)=O)[C@]2(CC)C=CCN3CC[C@@]4(c5cc([C@@]6(C(=O)OC)C[C@@H]7C=C(CC)CN(CCc8c6[nH]c6ccccc86)C7)c(OC)cc5N(C)[C@@H]14)[C@@H]32 (stereo partly drawn) [BM2] | 113 | 441 |
| CCCOCC1(O)[C@H](OC(C)=O)[C@]2(CC)C=CCN3CC[C@@]4(c5cc([C@@]6(C(=O)OC)C[C@@H]7C=C(CC)CN(CCc8c6[nH]c6ccccc86)C7)c(OC)cc5N(C)[C@@H]14)[C@@H]32 (stereo partly drawn) [BM3] | > 1000 | > 1000 |
| CCCCOCC1(O)[C@H](OC(C)=O)[C@]2(CC)C=CCN3CC[C@@]4(c5cc([C@@]6(C(=O)OC)C[C@@H]7C=C(CC)CN(CCc8c6[nH]c6ccccc86)C7)c(OC)cc5N(C)[C@@H]14)[C@@H]32 (stereo partly drawn) [BM4] | 295 | > 1000 |
| CCC1=C[C@@H]2CN(CCc3c([nH]c4ccccc34)[C@@](C(=O)OC)(c3cc4c(cc3OC)N(C)[C@H]3C(O)(COCc5ccc(OC)cc5)[C@H](OC(C)=O)[C@]5(CC)C=CCN6CC[C@]43C65)C2)C1 (stereo partly drawn) [BM5] | 286 | > 1000 |
| CCC1=C[C@@H]2CN(CCc3c([nH]c4ccccc34)[C@@](C(=O)OC)(c3cc4c(cc3OC)N(C)[C@H]3C(O)(COC(C)=O)[C@H](OC(C)=O)[C@]5(CC)C=CCN6CC[C@]43C65)C2)C1 (stereo partly drawn) [BM6] | 47.6 | 124 |
| CCC(=O)OCC1(O)[C@H](OC(C)=O)[C@]2(CC)C=CCN3CC[C@@]4(c5cc([C@@]6(C(=O)OC)C[C@@H]7C=C(CC)CN(CCc8c6[nH]c6ccccc86)C7)c(OC)cc5N(C)[C@@H]14)[C@@H]32 (stereo partly drawn) [BM10] | 637 | 710 |
| CCC1=C[C@@H]2CN(CCc3c([nH]c4ccccc34)[C@@](C(=O)OC)(c3cc4c(cc3OC)N(C)[C@H]3C(O)(COC(=O)C(C)C)[C@H](OC(C)=O)[C@]5(CC)C=CCN6CC[C@]43[C@@H]65)C2)C1 (stereo partly drawn) [BM11] | > 1000 | > 1000 |
| CCC1=C[C@@H]2CN(CCc3c([nH]c4ccccc34)[C@@](C(=O)OC)(c3cc4c(cc3OC)N(C)[C@H]3C(O)(COC(=O)C(C)(C)C)[C@H](OC(C)=O)[C@]5(CC)C=CCN6CC[C@]43C65)C2)C1 (stereo partly drawn) [BM12] | 95.9 | 576 |
| CCC1=C[C@@H]2CN(CCc3c([nH]c4ccccc34)[C@@](C(=O)OC)(c3cc4c(cc3OC)N(C)[C@H]3C(O)(COC(=O)CC(C)C)[C@H](OC(C)=O)[C@]5(CC)C=CCN6CC[C@]43[C@@H]65)C2)C1 (stereo partly drawn) [BM13] | > 1000 | > 1000 |
| CCC1=C[C@@H]2CN(CCc3c([nH]c4ccccc34)[C@@](C(=O)OC)(c3cc4c(cc3OC)N(C)[C@H]3C(O)(COC(=O)C5CC5)[C@H](OC(C)=O)[C@]5(CC)C=CCN6CC[C@]43[C@@H]65)C2)C1 (stereo partly drawn) [BM14] | > 1000 | > 1000 |
| CCC1=C[C@@H]2CN(CCc3c([nH]c4ccccc34)[C@@](C(=O)OC)(c3cc4c(cc3OC)N(C)[C@H]3C(O)(COC(=O)Cc5ccccc5)[C@H](OC(C)=O)[C@]5(CC)C=CCN6CC[C@]43[C@@H]65)C2)C1 (stereo partly drawn) [BM15] | 228 | > 1000 |
| CCC1=C[C@@H]2CN(CCc3c([nH]c4ccccc34)[C@@](C(=O)OC)(c3cc4c(cc3OC)N(C)[C@H]3C(O)(COC(=O)NCC(C)C)[C@H](OC(C)=O)[C@]5(CC)C=CCN6CC[C@]43C65)C2)C1 (stereo partly drawn) [BM22] | > 1000 | > 1000 |
| CCCCNC(=O)OCC1(O)[C@H](OC(C)=O)[C@]2(CC)C=CCN3CC[C@@]4(c5cc([C@@]6(C(=O)OC)C[C@@H]7C=C(CC)CN(CCc8c6[nH]c6ccccc86)C7)c(OC)cc5N(C)[C@@H]14)[C@@H]32 (stereo partly drawn) [BM23] | > 1000 | > 1000 |
| CCC1=C[C@@H]2CN(CCc3c([nH]c4ccccc34)[C@@](C(=O)OC)(c3cc4c(cc3OC)N(C)[C@H]3C(O)(COC(=O)NCCC(C)C)[C@H](OC(C)=O)[C@]5(CC)C=CCN6CC[C@]43[C@@H]65)C2)C1 (stereo partly drawn) [BM24] | > 1000 | > 1000 |
